{"source": "patent US20260224588A1", "about": "“BENZODIAZEPINONE-DERIVED INHIBITORS OF EGFR AND HER2” (The Research Foundation for the State University of New York, priority 2023, published 2026)", "key": {"CSNK1D": {"target": "CSNK1D (Homo sapiens, UniProt P48730)", "assay": "KINOMEscan", "type": "binding", "conditions": "1 μM of compound 4; read-out: POC"}, "CDK3": {"target": "CDK3 (Homo sapiens, UniProt Q00526)", "sequence (Q00526 whole entry)": "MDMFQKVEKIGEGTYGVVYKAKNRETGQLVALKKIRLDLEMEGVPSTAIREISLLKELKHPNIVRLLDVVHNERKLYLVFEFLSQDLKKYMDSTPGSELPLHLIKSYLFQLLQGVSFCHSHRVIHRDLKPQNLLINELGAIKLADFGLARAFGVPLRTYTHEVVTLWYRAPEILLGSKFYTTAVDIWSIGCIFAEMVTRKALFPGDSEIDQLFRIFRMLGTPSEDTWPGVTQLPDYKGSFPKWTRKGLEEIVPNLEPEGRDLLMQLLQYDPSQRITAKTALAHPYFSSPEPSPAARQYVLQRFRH", "assay": "KINOMEscan", "type": "binding", "conditions": "1 μM of compound 4; read-out: POC"}, "FYN": {"target": "T1, FYN (Homo sapiens, UniProt P06241)", "T1 construct": "purchased Eurofins DiscoverX Corporation", "assay": "KINOMEscan", "type": "binding", "conditions": "1 μM of compound 4; read-out: POC"}, "DRAK2": {"target": "DRAK2 (Homo sapiens, UniProt O94768)", "assay": "KINOMEscan", "type": "binding", "conditions": "1 μM of compound 4; read-out: POC"}, "[1]": {"test_system": "EGFR (L858R/T790M) in H1975 lung cancer cells", "assay": "Western blotting of EGFR, ERK1/2 and AKT phosphorylation", "type": "cell-based, human", "conditions": "6 hours treatment", "experimental": "FIG. 2. […] All experiments performed after 6 hours treatments of inhibitors or DMSO controls and Western blots are representative of at least three independent experiments.\nWestern blotting. Cells were collected and lysed with lysis buffer (5M NaCl, 1M TRIS pH 8.0, 10% SDS, 10% Triton X-100 and a tablet of protease inhibitors) and processed for Western blotting analysis. Primary antibodies used; phospho-EGFR (Tyr1068; #2234, 1:1,000), EGFR (#4267; 1:1,000), phospho-AKT (Ser473; #4060, 1:1,000), AKT (#9272, 1:1,000), phospho-ERK1/2 (Thr202/Tyr204; #4370, 1:1,000), and ERK1/2 (#4695, 1:1,000) antibodies; were purchased from Cell Signaling Technology. Secondary Goat anti-rabbit IgG starbright blue 700 and Anti-tubulin hFAB Rhodamine Tubulin were purchased from Bio-rad."}, "ERN1": {"target": "T2, ERN1 (Homo sapiens, UniProt O75460)", "T2 construct": "purchased Eurofins DiscoverX Corporation", "assay": "KINOMEscan", "type": "binding", "conditions": "1 μM of compound 4; read-out: POC"}, "YSK4": {"target": "T3, YSK4 (Homo sapiens, UniProt Q56UN5)", "T3 construct": "purchased Eurofins DiscoverX", "assay": "KINOMEscan", "type": "binding", "conditions": "1 μM of compound 4; read-out: POC"}, "[2]": {"target": "T4, ABL1(H396P)-nonphosphorylated (Homo sapiens, UniProt P00519, H396P)", "T4 construct": "purchased Eurofins DiscoverX Corporation", "assay": "KINOMEscan", "type": "binding", "conditions": "1 μM of compound 4; read-out: POC"}, "MAP3K15": {"target": "MAP3K15 (Homo sapiens, UniProt Q6ZN16)", "sequence (Q6ZN16 whole entry)": "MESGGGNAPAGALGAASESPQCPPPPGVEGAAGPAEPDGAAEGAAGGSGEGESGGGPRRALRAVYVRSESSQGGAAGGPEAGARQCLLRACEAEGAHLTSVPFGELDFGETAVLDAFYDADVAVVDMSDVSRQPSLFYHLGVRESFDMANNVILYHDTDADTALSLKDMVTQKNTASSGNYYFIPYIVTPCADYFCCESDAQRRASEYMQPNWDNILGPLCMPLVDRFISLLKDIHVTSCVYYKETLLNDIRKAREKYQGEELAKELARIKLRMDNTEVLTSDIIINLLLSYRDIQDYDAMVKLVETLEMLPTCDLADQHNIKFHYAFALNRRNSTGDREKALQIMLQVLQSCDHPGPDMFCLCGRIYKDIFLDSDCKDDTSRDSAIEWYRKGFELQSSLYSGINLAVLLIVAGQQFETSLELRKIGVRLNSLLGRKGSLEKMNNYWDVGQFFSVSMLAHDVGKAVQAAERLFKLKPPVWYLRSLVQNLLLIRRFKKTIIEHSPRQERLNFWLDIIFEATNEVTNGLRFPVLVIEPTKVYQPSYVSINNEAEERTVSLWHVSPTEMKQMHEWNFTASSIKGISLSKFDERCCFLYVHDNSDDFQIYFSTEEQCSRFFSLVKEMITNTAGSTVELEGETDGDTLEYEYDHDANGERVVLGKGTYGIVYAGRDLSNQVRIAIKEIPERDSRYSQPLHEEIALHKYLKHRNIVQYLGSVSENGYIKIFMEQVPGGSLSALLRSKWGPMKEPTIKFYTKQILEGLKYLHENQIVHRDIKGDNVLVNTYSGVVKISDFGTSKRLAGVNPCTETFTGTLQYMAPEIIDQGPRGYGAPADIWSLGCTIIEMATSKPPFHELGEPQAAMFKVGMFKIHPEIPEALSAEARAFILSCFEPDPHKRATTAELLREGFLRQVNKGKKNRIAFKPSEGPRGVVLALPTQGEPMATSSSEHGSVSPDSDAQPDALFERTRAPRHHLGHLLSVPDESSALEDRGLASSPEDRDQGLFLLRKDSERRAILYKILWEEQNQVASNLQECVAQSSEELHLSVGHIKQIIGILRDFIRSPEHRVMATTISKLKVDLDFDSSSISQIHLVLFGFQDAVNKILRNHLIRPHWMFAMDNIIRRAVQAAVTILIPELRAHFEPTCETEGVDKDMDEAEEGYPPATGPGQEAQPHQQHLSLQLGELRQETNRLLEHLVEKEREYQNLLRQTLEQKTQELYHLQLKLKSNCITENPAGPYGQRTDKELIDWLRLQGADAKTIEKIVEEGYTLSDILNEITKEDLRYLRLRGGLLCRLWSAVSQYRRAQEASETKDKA", "assay": "KINOMEscan", "type": "binding", "conditions": "1 μM of compound 4; read-out: POC"}, "ZAK": {"target": "T5, ZAK (Homo sapiens, UniProt Q9NYL2)", "T5 construct": "purchased Eurofins DiscoverX", "assay": "KINOMEscan", "type": "binding", "conditions": "1 μM of compound 4; read-out: POC"}, "JNK3": {"target": "JNK3 (Homo sapiens, UniProt P53779)", "sequence (P53779 whole entry)": "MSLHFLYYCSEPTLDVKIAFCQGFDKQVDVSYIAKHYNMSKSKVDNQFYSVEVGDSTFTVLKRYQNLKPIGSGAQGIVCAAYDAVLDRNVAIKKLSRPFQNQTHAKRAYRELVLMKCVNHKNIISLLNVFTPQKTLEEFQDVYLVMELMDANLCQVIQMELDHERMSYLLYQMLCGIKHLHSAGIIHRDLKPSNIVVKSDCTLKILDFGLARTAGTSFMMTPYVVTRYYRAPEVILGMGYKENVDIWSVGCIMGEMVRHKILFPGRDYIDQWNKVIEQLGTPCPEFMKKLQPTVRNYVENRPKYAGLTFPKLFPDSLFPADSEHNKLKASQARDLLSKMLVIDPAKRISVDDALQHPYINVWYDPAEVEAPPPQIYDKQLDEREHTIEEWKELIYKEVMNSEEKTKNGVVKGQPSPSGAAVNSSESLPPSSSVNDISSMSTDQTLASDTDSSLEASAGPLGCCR", "assay": "KINOMEscan", "type": "binding", "conditions": "1 μM of compound 4; read-out: POC"}, "HASPIN": {"target": "T6, HASPIN (Homo sapiens, UniProt Q8TF76)", "T6 construct": "purchased Eurofins DiscoverX Corporation", "assay": "KINOMEscan", "type": "binding", "conditions": "1 μM of compound 4; read-out: POC"}, "CAMK1B": {"target": "CAMK1B (Homo sapiens, UniProt Q6P2M8)", "sequence (Q6P2M8 whole entry)": "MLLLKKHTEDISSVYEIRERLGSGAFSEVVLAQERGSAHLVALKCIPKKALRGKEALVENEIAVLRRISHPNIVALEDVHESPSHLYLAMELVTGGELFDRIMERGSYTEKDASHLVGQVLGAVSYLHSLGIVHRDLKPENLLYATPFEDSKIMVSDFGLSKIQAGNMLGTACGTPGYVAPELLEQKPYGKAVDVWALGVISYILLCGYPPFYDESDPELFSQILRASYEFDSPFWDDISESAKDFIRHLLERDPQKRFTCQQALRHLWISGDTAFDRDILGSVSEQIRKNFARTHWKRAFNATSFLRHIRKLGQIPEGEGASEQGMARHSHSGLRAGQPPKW", "assay": "KINOMEscan", "type": "binding", "conditions": "1 μM of compound 4; read-out: POC"}, "PLK1": {"target": "PLK1 (Homo sapiens, UniProt P53350)", "assay": "KINOMEscan", "type": "binding", "conditions": "1 μM of compound 4; read-out: POC"}, "ASK2": {"target": "ASK2 (Homo sapiens, UniProt O95382)", "sequence (O95382 whole entry)": "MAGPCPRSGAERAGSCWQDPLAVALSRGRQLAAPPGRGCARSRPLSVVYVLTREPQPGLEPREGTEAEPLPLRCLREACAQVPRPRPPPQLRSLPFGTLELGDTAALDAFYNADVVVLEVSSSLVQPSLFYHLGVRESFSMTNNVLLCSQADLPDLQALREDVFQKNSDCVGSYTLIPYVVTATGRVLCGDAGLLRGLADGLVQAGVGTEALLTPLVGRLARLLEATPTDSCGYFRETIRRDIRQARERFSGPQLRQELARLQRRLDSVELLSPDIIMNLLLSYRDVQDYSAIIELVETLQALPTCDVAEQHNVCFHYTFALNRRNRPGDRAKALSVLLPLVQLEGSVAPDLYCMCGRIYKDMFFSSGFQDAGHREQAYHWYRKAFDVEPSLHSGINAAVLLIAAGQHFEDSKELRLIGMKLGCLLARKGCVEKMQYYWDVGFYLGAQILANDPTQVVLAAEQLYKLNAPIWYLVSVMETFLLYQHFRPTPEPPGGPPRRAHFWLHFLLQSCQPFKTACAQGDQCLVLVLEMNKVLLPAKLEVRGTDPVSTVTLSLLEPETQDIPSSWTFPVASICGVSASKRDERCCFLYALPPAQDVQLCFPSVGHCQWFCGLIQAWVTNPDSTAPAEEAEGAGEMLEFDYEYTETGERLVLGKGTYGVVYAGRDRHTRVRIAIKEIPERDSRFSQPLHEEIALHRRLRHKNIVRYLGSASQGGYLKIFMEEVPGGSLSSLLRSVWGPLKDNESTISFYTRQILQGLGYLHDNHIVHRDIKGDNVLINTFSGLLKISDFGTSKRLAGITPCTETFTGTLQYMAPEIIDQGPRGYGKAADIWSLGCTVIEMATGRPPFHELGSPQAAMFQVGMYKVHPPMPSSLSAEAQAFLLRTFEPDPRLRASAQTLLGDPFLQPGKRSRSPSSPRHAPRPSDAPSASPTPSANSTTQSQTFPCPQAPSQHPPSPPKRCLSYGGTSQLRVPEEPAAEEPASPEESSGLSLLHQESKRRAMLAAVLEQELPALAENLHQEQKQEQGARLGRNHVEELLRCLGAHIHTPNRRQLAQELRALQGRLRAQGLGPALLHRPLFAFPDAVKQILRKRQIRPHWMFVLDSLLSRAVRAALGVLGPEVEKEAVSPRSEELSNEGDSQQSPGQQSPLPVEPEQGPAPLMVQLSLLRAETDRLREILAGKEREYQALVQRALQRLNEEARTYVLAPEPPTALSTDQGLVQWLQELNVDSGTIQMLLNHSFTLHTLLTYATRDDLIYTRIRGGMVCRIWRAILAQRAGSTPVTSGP", "assay": "KINOMEscan", "type": "binding", "conditions": "1 μM of compound 4; read-out: POC"}, "TESK1": {"target": "T7, TESK1 (Homo sapiens, UniProt Q15569)", "T7 construct": "purchased Eurofins DiscoverX Corporation", "assay": "KINOMEscan", "type": "binding", "conditions": "1 μM of compound 4; read-out: POC"}, "PCTK3": {"target": "T8, PCTK3 (Homo sapiens, UniProt Q07002)", "T8 construct": "purchased Eurofins DiscoverX Corporation (KINOMEscan)", "assay": "KINOMEscan", "type": "binding", "conditions": "1 μM of compound 4; read-out: POC"}, "LZK": {"target": "LZK (Homo sapiens, UniProt O43283)", "assay": "KINOMEscan", "type": "binding", "conditions": "1 μM of compound 4; read-out: POC"}, "MARK2": {"target": "MARK2 (Homo sapiens, UniProt Q7KZI7)", "assay": "KINOMEscan", "type": "binding", "conditions": "1 μM of compound 4; read-out: POC"}, "BMX": {"target": "BMX (Homo sapiens, UniProt P51813)", "assay": "KINOMEscan", "type": "binding", "conditions": "1 μM of compound 4; read-out: POC"}, "TEC": {"target": "T9, TEC (Homo sapiens, UniProt P42680)", "T9 construct": "purchased Eurofins DiscoverX Corporation", "assay": "KINOMEscan", "type": "binding", "conditions": "1 μM of compound 4; read-out: POC"}, "CLK2": {"target": "CLK2 (Homo sapiens, UniProt P49760)", "assay": "KINOMEscan", "type": "binding", "conditions": "1 μM of compound 4; read-out: POC"}, "RET(V804M)": {"target": "T10, RET(V804M) (Homo sapiens, UniProt P07949, V804M)", "T10 construct": "purchased Eurofins DiscoverX Corporation (KINOMEscan screening service)", "assay": "KINOMEscan", "type": "binding", "conditions": "1 μM of compound 4; read-out: POC"}, "[3]": {"target": "T11, ABL1(F317L)-nonphosphorylated (Homo sapiens, UniProt P00519, F317L)", "T11 construct": "purchased Eurofins DiscoverX Corporation", "assay": "KINOMEscan", "type": "binding", "conditions": "1 μM of compound 4; read-out: POC"}, "BIKE": {"target": "BIKE (Homo sapiens, UniProt Q9NSY1)", "assay": "KINOMEscan", "type": "binding", "conditions": "1 μM of compound 4; read-out: POC"}, "CDK9": {"target": "CDK9 (Homo sapiens, UniProt P50750)", "assay": "KINOMEscan", "type": "binding", "conditions": "1 μM of compound 4; read-out: POC"}, "MEK4": {"target": "MEK4 (Homo sapiens, UniProt P45985)", "sequence (P45985 whole entry)": "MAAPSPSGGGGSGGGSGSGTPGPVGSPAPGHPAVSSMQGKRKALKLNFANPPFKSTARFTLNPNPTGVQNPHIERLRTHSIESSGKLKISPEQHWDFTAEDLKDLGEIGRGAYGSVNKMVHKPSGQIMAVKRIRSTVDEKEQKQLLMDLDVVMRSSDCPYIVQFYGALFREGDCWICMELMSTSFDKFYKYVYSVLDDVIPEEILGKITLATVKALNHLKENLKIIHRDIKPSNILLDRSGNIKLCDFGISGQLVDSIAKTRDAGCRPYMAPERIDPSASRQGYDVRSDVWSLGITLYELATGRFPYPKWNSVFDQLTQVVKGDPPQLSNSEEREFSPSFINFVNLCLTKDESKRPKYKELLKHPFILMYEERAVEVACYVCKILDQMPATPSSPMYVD", "assay": "KINOMEscan", "type": "binding", "conditions": "1 μM of compound 4; read-out: POC"}, "MAK": {"target": "MAK (Homo sapiens, UniProt P20794)", "assay": "KINOMEscan", "type": "binding", "conditions": "1 μM of compound 4; read-out: POC"}, "YANK2": {"target": "T12, YANK2 (Homo sapiens, UniProt Q9NY57)", "T12 construct": "purchased Eurofins DiscoverX", "assay": "KINOMEscan", "type": "binding", "conditions": "1 μM of compound 4; read-out: POC"}, "BMPR1A": {"target": "BMPR1A (Homo sapiens, UniProt P36894)", "assay": "KINOMEscan", "type": "binding", "conditions": "1 μM of compound 4; read-out: POC"}, "PLK4": {"target": "PLK4 (Homo sapiens, UniProt O00444)", "assay": "KINOMEscan", "type": "binding", "conditions": "1 μM of compound 4; read-out: POC"}, "MST1": {"target": "MST1 (Homo sapiens, UniProt Q13043)", "assay": "KINOMEscan", "type": "binding", "conditions": "1 μM of compound 4; read-out: POC"}, "CSNK1G1": {"target": "CSNK1G1 (Homo sapiens, UniProt Q9HCP0)", "assay": "KINOMEscan", "type": "binding", "conditions": "1 μM of compound 4; read-out: POC"}, "GRK1": {"target": "T13, GRK1 (Homo sapiens, UniProt Q15835)", "T13 construct": "purchased Eurofins DiscoverX Corporation", "T13 sequence (Q15835 whole entry)": "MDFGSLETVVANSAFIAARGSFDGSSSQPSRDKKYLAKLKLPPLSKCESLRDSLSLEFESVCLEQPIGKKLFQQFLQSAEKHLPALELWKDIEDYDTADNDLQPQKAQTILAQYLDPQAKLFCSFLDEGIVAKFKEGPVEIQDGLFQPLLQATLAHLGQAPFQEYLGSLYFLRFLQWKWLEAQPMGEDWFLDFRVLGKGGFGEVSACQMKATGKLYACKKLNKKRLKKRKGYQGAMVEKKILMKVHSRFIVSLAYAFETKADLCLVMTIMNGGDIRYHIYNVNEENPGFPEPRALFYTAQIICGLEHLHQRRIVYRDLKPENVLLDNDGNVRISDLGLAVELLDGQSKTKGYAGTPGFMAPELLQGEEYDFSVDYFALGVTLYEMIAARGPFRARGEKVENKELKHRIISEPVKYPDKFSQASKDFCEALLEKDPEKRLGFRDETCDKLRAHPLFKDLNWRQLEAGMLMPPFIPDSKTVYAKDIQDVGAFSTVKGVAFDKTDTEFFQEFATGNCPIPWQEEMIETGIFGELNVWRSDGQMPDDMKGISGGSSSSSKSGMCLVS", "assay": "KINOMEscan", "type": "binding", "conditions": "1 μM of compound 4; read-out: POC"}, "PIM3": {"target": "PIM3 (Homo sapiens, UniProt Q86V86)", "assay": "KINOMEscan", "type": "binding", "conditions": "1 μM of compound 4; read-out: POC"}}, "note": "“Also recorded” adds a separate entry of the source."}
{"smiles": "C=CC(=O)Nc1ccc(OC)c(Nc2cc(-c3[nH]c(CC)nc3-c3cccc(NC(=O)c4cccc5c4NC(=O)c4ccccc4N5)c3)ccn2)c1", "note": "[Compound 4, N-(3-(5-(2-((5-Acrylamido-2-methoxyphenyl)amino)pyridin-4-yl)-2-ethyl-1H-imidazol-4-yl)phenyl)-11-oxo-10,11-dihydro-5H-dibenzo[b,e][1,4]diazepine-9-carboxamide]", "values": [{"measurement": "remaining binding at 1 µM", "setting": "CSNK1D", "result": 87, "unit": "%"}, {"measurement": "remaining binding at 1 µM", "setting": "CDK3", "result": 100, "unit": "%"}, {"measurement": "remaining binding at 1 µM", "setting": "FYN", "result": 64, "unit": "%"}, {"measurement": "remaining binding at 1 µM", "setting": "DRAK2", "result": 94, "unit": "%"}, {"measurement": "EGFR, ERK1/2 and AKT phosphorylation (Western blot)", "setting": "[1]", "result": "most effective in suppression of active EGFR (pY1068) as well as downstream pERK; also recorded: reduces EGFR (L858R/T790M), ERK1/2, and AKT phosphorylation"}, {"measurement": "remaining binding at 1 µM", "setting": "ERN1", "result": 74, "unit": "%"}, {"measurement": "remaining binding at 1 µM", "setting": "YSK4", "result": 88, "unit": "%"}, {"measurement": "remaining binding at 1 µM", "setting": "[2]", "result": 97, "unit": "%"}, {"measurement": "remaining binding at 1 µM", "setting": "MAP3K15", "result": 74, "unit": "%"}, {"measurement": "remaining binding at 1 µM", "setting": "ZAK", "result": 87, "unit": "%"}, {"measurement": "remaining binding at 1 µM", "setting": "JNK3", "result": 53, "unit": "%"}, {"measurement": "remaining binding at 1 µM", "setting": "HASPIN", "result": 100, "unit": "%"}, {"measurement": "remaining binding at 1 µM", "setting": "CAMK1B", "result": 94, "unit": "%"}, {"measurement": "remaining binding at 1 µM", "setting": "PLK1", "result": 50, "unit": "%"}, {"measurement": "remaining binding at 1 µM", "setting": "ASK2", "result": 100, "unit": "%"}, {"measurement": "remaining binding at 1 µM", "setting": "TESK1", "result": 94, "unit": "%"}, {"measurement": "remaining binding at 1 µM", "setting": "PCTK3", "result": 93, "unit": "%"}, {"measurement": "remaining binding at 1 µM", "setting": "LZK", "result": 90, "unit": "%"}, {"measurement": "remaining binding at 1 µM", "setting": "MARK2", "result": 85, "unit": "%"}, {"measurement": "remaining binding at 1 µM", "setting": "BMX", "result": 66, "unit": "%"}, {"measurement": "remaining binding at 1 µM", "setting": "TEC", "result": 45, "unit": "%"}, {"measurement": "remaining binding at 1 µM", "setting": "CLK2", "result": 63, "unit": "%"}, {"measurement": "remaining binding at 1 µM", "setting": "RET(V804M)", "result": 91, "unit": "%"}, {"measurement": "remaining binding at 1 µM", "setting": "[3]", "result": 37, "unit": "%"}, {"measurement": "remaining binding at 1 µM", "setting": "BIKE", "result": 100, "unit": "%"}, {"measurement": "remaining binding at 1 µM", "setting": "CDK9", "result": 100, "unit": "%"}, {"measurement": "remaining binding at 1 µM", "setting": "MEK4", "result": 100, "unit": "%"}, {"measurement": "remaining binding at 1 µM", "setting": "MAK", "result": 89, "unit": "%"}, {"measurement": "remaining binding at 1 µM", "setting": "YANK2", "result": 63, "unit": "%"}, {"measurement": "remaining binding at 1 µM", "setting": "BMPR1A", "result": 85, "unit": "%"}, {"measurement": "remaining binding at 1 µM", "setting": "PLK4", "result": 71, "unit": "%"}, {"measurement": "remaining binding at 1 µM", "setting": "MST1", "result": 6, "unit": "%"}, {"measurement": "remaining binding at 1 µM", "setting": "CSNK1G1", "result": 93, "unit": "%"}, {"measurement": "remaining binding at 1 µM", "setting": "GRK1", "result": 94, "unit": "%"}, {"measurement": "remaining binding at 1 µM", "setting": "PIM3", "result": 100, "unit": "%"}]}
